Measurements taken from patent US20060069132A1, “Azolecarboxamide herbicides” (priority 2004, published 2006).

Columns and labels:
barnyardgrass [1] = assay: Test B pre-/postemergence herbicide test; assay type: in vivo, Echinochloa crus-galli; conditions: for Barnyardgrass plant response rating: postemergence
In short: (§1)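 Greenhouse pot assay with simultaneous preemergence (treated seed) and postemergence (2–18 cm seedlings) applications of surfactant-containing, non-phytotoxic solvent formulations. Response scored visually 13–15 days later on a 0–100 scale, 100 meaning complete control.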

Surinam grass = assay: Test B pre-/postemergence herbicide test; assay type: in vivo, Urochloa decumbens; conditions: for Surinam Grass plant response rating: postemergence
In short: (§2)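 Flooded paddy rice and barnyardgrass were treated at the 2-leaf stage; upland plantings received compound either on sown seed or on 1- to 4-leaf seedlings. All were kept 13–15 days in a greenhouse and scored visually, 0–100, relative to untreated plants.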

cocklebur = assay: Test B pre-/postemergence herbicide test; assay type: in vivo, Xanthium strumarium; conditions: for Cocklebur plant response rating: postemergence
In short: as §1

corn = assay: Test B pre-/postemergence herbicide test; assay type: in vivo, Zea mays; conditions: for Corn plant response rating: postemergence
In short: as §2

large crabgrass = assay: Test B pre-/postemergence herbicide test; assay type: in vivo, Digitaria sanguinalis; conditions: for Crabgrass, Large plant response rating: postemergence
In short: as §2

giant foxtail = assay: Test B pre-/postemergence herbicide test; assay type: in vivo, Setaria faberi; conditions: for Foxtail, Giant plant response rating: postemergence
In short: as §2

lambsquarters = assay: Test B pre-/postemergence herbicide test; assay type: in vivo, Chenopodium album; conditions: for Lambsquarters plant response rating: postemergence
In short: as §2

morningglory = assay: Test B pre-/postemergence herbicide test; assay type: in vivo, Ipomoea coccinea; conditions: for Morningglory plant response rating: postemergence
In short: as §1

pigweed = assay: Test B pre-/postemergence herbicide test; assay type: in vivo, Amaranthus retroflexus; conditions: for Pigweed plant response rating: postemergence
In short: as §2

blackgrass = assay: Test B postemergence herbicide test; assay type: in vivo, Alopecurus myosuroides; conditions: postemergence
In short: (§3)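 Greenhouse test; postemergence application to plants at 1–4 leaves (2–18 cm); paddy species at 2 leaves; evaluated visually vs controls at 13–15 days; scale 0–100 (100 = complete control).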

wheat = assay: Test B postemergence herbicide test; assay type: in vivo, Triticum aestivum; set-up: key to Wheat plant response rating: 0 = no effect, 100 = complete control; conditions: postemergence
In short: (§4)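 Read-out: visual comparison with controls, scored 0 to 100, where 100 means complete control and 0 no effect. Formulated chemicals were applied postemergence to plants 2–18 cm tall (1- to 4-leaf), or to flooded-paddy plants at the 2-leaf stage, then held 13 to 15 days under glass.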

wild oat = assay: Test B postemergence herbicide test; assay type: in vivo, Avena fatua; conditions: postemergence
In short: as §4

rice = assay: Test B flooded paddy test; assay type: in vivo, Oryza sativa; conditions: 1000 g ai/ha, scale 0 to 100 (0 no effect, 100 complete control)
In short: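 After treating 2-leaf paddy plants or 2–18 cm postemergence plants (1 to 4 leaves) with formulated chemical, researchers kept them in a greenhouse for 13–15 days. Effects were judged visually versus controls: 0 indicates none, 100 total control.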

[2] = system: small flower umbrella sedge; assay: Test B flooded paddy test; assay type: in vivo, Cyperus difformis; conditions: 1000 g ai/ha, scale 0 to 100 (0 no effect, 100 complete control)
In short: as §3

ducksalad = assay: Test B flooded paddy test; assay type: in vivo, Heteranthera limosa; conditions: 1000 g ai/ha, scale 0 to 100 (0 no effect, 100 complete control)
In short: as §3

barnyardgrass [3] = assay: Test B flooded paddy test; assay type: in vivo, Echinochloa crus-galli; conditions: 1000 g ai/ha, scale 0 to 100 (0 no effect, 100 complete control)
In short: as §3

[4] = 500 g ai/ha, visual rating 0-100, 0 no effect, 100 complete control, preemergence
[5] = 125 g ai/ha, visual rating, scale 0 (no effect) to 100 (complete control)
[6] = 500 g ai/ha, visual rating, scale 0 (no effect) to 100 (complete control)
[7] = preemergence, 125 g ai/ha, 0 to 100 scale, 0 is no effect, 100 is complete control
[8] = 125 g ai/ha, 0 = no effect, 100 = complete control, preemergence
[9] = 500 g ai/ha, visual rating, 0 = no effect, 100 = complete control, preemergence
[10] = 500 g ai/ha, scale 0 to 100, 0 is no effect, 100 is complete control

CCn1nc(C(C)(C)C)cc1C(=O)Nc1cccc(SC)c1 [Compound 131]
20: Surinam Grass plant response rating (Surinam grass; [5]) | Corn plant response rating (corn; [5]) | Corn plant response rating (corn; [6]) | Crabgrass, Large plant response rating (large crabgrass; [5]) | Foxtail, Giant plant response rating (giant foxtail; [5]) | Morningglory plant response rating (morningglory; [5]) | Blackgrass plant response rating (blackgrass; [6]) | Wheat plant response rating (wheat; [6]) | Oat, Wild plant response rating (wild oat; [5]) | Oat, Wild plant response rating (wild oat; [6])
90: Plant response rating, Barnyardgrass (barnyardgrass [1]; [4]) | Lambsquarters plant response rating (lambsquarters; [6])
70: Plant response rating, Barnyardgrass (barnyardgrass [1]; [7]) | Cocklebur plant response rating (cocklebur; [5]) | Plant response rating, Foxtail, Giant (giant foxtail; [4]) | Barnyardgrass plant response rating (barnyardgrass [3]; visual rating, 13 to 15 days)
60: Plant response rating, Surinam Grass (Surinam grass; [4]) | Surinam Grass plant response rating (Surinam grass; [6]) | Morningglory plant response rating (morningglory; [6]) | Pigweed plant response rating (pigweed; [6]) | Rice plant response rating (rice; visual rating, 13 to 15 days)
30: Crabgrass, Large plant response rating (large crabgrass; [6]) | Foxtail, Giant plant response rating (giant foxtail; [6]) | Plant response rating, Morningglory (morningglory; [4]) | Pigweed plant response rating (pigweed; [5])
50: Barnyardgrass plant response rating (barnyardgrass [1]; [6]) | Plant response rating, Crabgrass, Large (large crabgrass; [7])
0: Plant response rating, Cocklebur (cocklebur; [7]) | Plant response rating, Corn (corn; [4]) | Plant response rating, Corn (corn; [7])
80: Lambsquarters plant response rating (lambsquarters; [5]) | Sedge, Umbrella plant response rating ([2]; visual rating, 13 to 15 days) | Ducksalad plant response rating (ducksalad; visual rating, 13 to 15 days)
100: Cocklebur plant response rating (cocklebur; [6]) | Plant response rating, Crabgrass, Large (large crabgrass; [4]) | Plant response rating, Lambsquarters (lambsquarters; [4]) | Plant response rating, Lambsquarters (lambsquarters; [7]) | Plant response rating, Pigweed (pigweed; [4]) | Plant response rating, Pigweed (pigweed; [7])
10: Barnyardgrass plant response rating (barnyardgrass [1]; [5]) | Plant response rating, Surinam Grass (Surinam grass; [7]) | Plant response rating, Cocklebur (cocklebur; [4]) | Plant response rating, Foxtail, Giant (giant foxtail; [7]) | Plant response rating, Morningglory (morningglory; [7]) | Blackgrass plant response rating (blackgrass; [5]) | Wheat plant response rating (wheat; [5])

C=CCN(C)C(=O)c1cccc(NC(=O)c2cc(C(C)(C)C)nn2CC)c1 [Compound 285]
70: Plant response rating, Surinam Grass (Surinam grass; [9]) | Plant response rating, Crabgrass, Large (large crabgrass; [9]) | Lambsquarters plant response rating (lambsquarters; [10]) | Pigweed plant response rating (pigweed; [5])
10: Barnyardgrass plant response rating (barnyardgrass [1]; [10]) | Surinam Grass plant response rating (0 to 100 scale) (Surinam grass; [8]) | Surinam Grass plant response rating (Surinam grass; [5]) | Cocklebur plant response rating (cocklebur; [5]) | Corn plant response rating (corn; [5]) | Corn plant response rating (corn; [10]) | Foxtail, Giant plant response rating (0 to 100 scale) (giant foxtail; [8]) | Plant response rating, Morningglory (morningglory; [9])
30: Barnyardgrass plant response rating (0 to 100 scale) (barnyardgrass [1]; [8]) | Surinam Grass plant response rating (Surinam grass; [10]) | Cocklebur plant response rating (cocklebur; [10]) | Foxtail, Giant plant response rating (giant foxtail; [5]) | Morningglory plant response rating (morningglory; [10]) | Blackgrass plant response rating (blackgrass; [5]) | Blackgrass plant response rating (blackgrass; [10]) | Wheat plant response rating (wheat; [5])
80: Plant response rating, Foxtail, Giant (giant foxtail; [9]) | Pigweed plant response rating (pigweed; [10]) | Rice plant response rating (rice)
20: Crabgrass, Large plant response rating (0 to 100 scale) (large crabgrass; [8]) | Crabgrass, Large plant response rating (large crabgrass; [10]) | Morningglory plant response rating (morningglory; [5])
100: Lambsquarters plant response rating (0 to 100 scale) (lambsquarters; [8]) | Plant response rating, Lambsquarters (lambsquarters; [9]) | Pigweed plant response rating (0 to 100 scale) (pigweed; [8]) | Plant response rating, Pigweed (pigweed; [9])
0: Barnyardgrass plant response rating (barnyardgrass [1]; [5]) | Cocklebur plant response rating (0 to 100 scale) (cocklebur; [8]) | Plant response rating, Cocklebur (cocklebur; [9]) | Corn plant response rating (0 to 100 scale) (corn; [8]) | Crabgrass, Large plant response rating (large crabgrass; [5]) | Morningglory plant response rating (0 to 100 scale) (morningglory; [8])
50: Foxtail, Giant plant response rating (giant foxtail; [10]) | Oat, Wild plant response rating (wild oat; [10])
90: Plant response rating, Barnyardgrass (barnyardgrass [1]; [9]) | Sedge, Umbrella plant response rating [2] | Ducksalad plant response rating (ducksalad) | Barnyardgrass plant response rating (barnyardgrass [3])
40: Plant response rating, Corn (corn; [9]) | Lambsquarters plant response rating (lambsquarters; [5]) | Wheat plant response rating (wheat; [10]) | Oat, Wild plant response rating (wild oat; [5])
